# Data taken from US20260116921A1, “PEPTIDE INHIBITORS OF INTERLEUKIN-23 RECEPTOR AND THEIR USE TO TREAT INFLAMMATORY DISEASES” (priority 2018, published 2026).
# pIC50: −log10 of the molar value. Bridge positions count the residues as written; N and C are the ends. Square brackets hold non-standard residues; d marks the D form. Peptide text beside a SMILES is read from it. Trp(7-Me) = Cc1cccc2c(C[C@H](N)C(=O)O)c[nH]c12; Trp(1-Me) = Cn1cc(C[C@H](N)C(=O)O)c2ccccc21; 2Nal = N[C@@H](Cc1ccc2ccccc2c1)C(=O)O; AEF = NCCOc1ccc(C[C@H](N)C(=O)O)cc1; Cit = NC(=O)NCCC[C@H](N)C(=O)O; Pen = CC(C)(S)[C@H](N)C(=O)O; αMeK = C[C@](N)(CCCCN)C(=O)O; βAla = NCCC(=O)O
# What was measured:
# [1] = target: T1, IL-23R (Homo sapiens, UniProt Q5VWK5); test: DB cells IL23R pSTAT3 cell assay (pStat3 HTRF); assay type: cell-based; conditions: Table E3; DB cells, IL-23 0.5 nM, 30 minutes at 37° C.; read-out: pStat3 HTRF (IC50)
# T1 sequence (Q5VWK5 24-629): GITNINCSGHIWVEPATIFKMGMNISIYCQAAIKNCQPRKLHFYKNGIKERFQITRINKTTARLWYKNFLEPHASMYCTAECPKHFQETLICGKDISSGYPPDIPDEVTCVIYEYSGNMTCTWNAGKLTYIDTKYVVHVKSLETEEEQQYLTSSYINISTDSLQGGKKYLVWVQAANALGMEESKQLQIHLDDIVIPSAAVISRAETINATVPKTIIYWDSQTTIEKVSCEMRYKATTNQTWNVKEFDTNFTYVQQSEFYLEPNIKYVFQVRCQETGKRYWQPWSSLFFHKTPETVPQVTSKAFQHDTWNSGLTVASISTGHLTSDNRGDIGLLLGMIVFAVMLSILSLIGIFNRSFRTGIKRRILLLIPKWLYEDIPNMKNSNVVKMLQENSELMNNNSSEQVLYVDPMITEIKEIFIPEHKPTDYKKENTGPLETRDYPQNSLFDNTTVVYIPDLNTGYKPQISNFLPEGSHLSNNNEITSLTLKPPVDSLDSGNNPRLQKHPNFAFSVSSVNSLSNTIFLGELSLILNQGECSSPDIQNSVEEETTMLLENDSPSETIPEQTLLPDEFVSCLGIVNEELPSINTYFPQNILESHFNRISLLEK
# Procedure, shortened: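 DB cells (5×10E5/well, RPMI-1640 + 10% FBS) stimulated with 0.5 nM final IL-23 plus serially diluted test peptides for 30 min at 37 °C, 5% CO2. Phospho-STAT3 (Tyr705) in lysates measured by HTRF using a two-plate protocol.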
# [2] = in vitro; assay type: in vitro ADME; design: half-life: dose or concentration left out as unconfirmed; conditions: simulated intestinal fluid (SIF) with pancreatin, pH 6.8, 37° C., § matrix is 100 fold dilution of standard SIF concentration, read-out: SIF t½ (converted)
# [3] = in vitro; conditions: human, 20% fecal homogenate (supernatant), anaerobic, pH 6.8
# [4] = in vitro; conditions: cynomolgus monkey, 20% fecal homogenate (supernatant), anaerobic, pH 6.8
# [5] = in vitro; conditions: both, SD, rat, plasma (EDTA)
SMILES,pIC50 [1],half-life [2],half-life at 20 μM [3],half-life at 20 μM [4],half-life at 20 μM [5]
CC(=O)NCCCC[C@H](NC(=O)[C@](C)(CCCCN)NC(=O)[C@H](Cc1ccc2ccccc2c1)NC(=O)[C@H](Cc1ccc(OCCN)cc1)NC(=O)[C@H]1NC(=O)[C@H](CCCNC(N)=O)NC(=O)[C@H](Cc2c[nH]c3c(C)cccc23)NC(=O)[C@H]([C@@H](C)O)NC(=O)[C@H](CC(N)=O)NC(=O)[C@@H](NC(C)=O)C(C)(C)SSC1(C)C)C(=O)N[C@@H](CC(N)=O)C(=O)N[C@H](CO)C(N)=O [compound 261] (Ac-[Pen]NT[Trp(7-Me)][Cit][Pen][AEF][2Nal][αMeK]K(Ac)N[dS]-NH2; disulfide 1-6),> 9.00,1080 min,> 1440 min,240 min,> 1440 min
CC(=O)NCCCC[C@@H]1NC(=O)[C@H](Cc2c[nH]c3c(C)cccc23)NC(=O)[C@H]([C@@H](C)O)NC(=O)[C@H](CC(N)=O)NC(=O)[C@@H](NC(C)=O)C(C)(C)SSC(C)(C)[C@@H](C(=O)N[C@@H](Cc2ccc(OCCN)cc2)C(=O)N[C@@H](Cc2ccc3ccccc3c2)C(=O)N[C@@](C)(CCCCN)C(=O)N[C@@H](CCCCNC(C)=O)C(=O)N[C@@H](CC(N)=O)C(=O)N2CCC[C@@H]2C(N)=O)NC1=O [compound 254],8.00 to 9.00,960 min,> 1440 min,> 1440 min,720 min
CCC(CC)(NC(=O)[C@H](Cc1ccc2ccccc2c1)NC(=O)[C@H](Cc1ccc(OCCN)cc1)NC(=O)[C@H]1NC(=O)[C@H](CCC(N)=O)NC(=O)[C@H](Cc2c[nH]c3c(C)cccc23)NC(=O)[C@H]([C@@H](C)O)NC(=O)[C@H](CC(N)=O)NC(=O)[C@@H](NC(C)=O)C(C)(C)SSC1(C)C)C(=O)N[C@@H](CCCCNC(C)=O)C(=O)N[C@@H](CC(N)=O)C(=O)NCCC(N)=O [compound 276],> 9.00,780 min,> 1440 min,780 min,300 min
CC(=O)NCCCC[C@H](NC(=O)[C@](C)(CCCCN)NC(=O)[C@H](Cc1ccc2ccccc2c1)NC(=O)[C@H](Cc1ccc(OCCN)cc1)NC(=O)[C@H]1NC(=O)[C@H](CCCNC(N)=O)NC(=O)[C@H](Cc2c[nH]c3c(C)cccc23)NC(=O)[C@H]([C@@H](C)O)NC(=O)[C@H](CC(N)=O)NC(=O)[C@@H](NC(C)=O)C(C)(C)SSC1(C)C)C(=O)NCCC(=O)NCCC(N)=O [compound 268] (Ac-[Pen]NT[Trp(7-Me)][Cit][Pen][AEF][2Nal][αMeK]K(Ac)[βAla][βAla]-NH2; disulfide 1-6),8.00 to 9.00,900 min,> 1440 min,> 1440 min,> 1440 min
CC(=O)NCCCC[C@H](NC(=O)[C@](C)(CCCCN)NC(=O)[C@H](Cc1ccc2ccccc2c1)NC(=O)[C@H](Cc1ccc(OCCN)cc1)NC(=O)[C@H]1NC(=O)[C@H](CCCNC(N)=O)NC(=O)[C@H](Cc2c[nH]c3c(C)cccc23)NC(=O)[C@H]([C@@H](C)O)NC(=O)[C@H](CC(N)=O)NC(=O)[C@@H](NC(C)=O)C(C)(C)SSC1(C)C)C(=O)N[C@@H](CC(N)=O)C(=O)N[C@H](Cc1ccccc1)C(N)=O [compound 257] (Ac-[Pen]NT[Trp(7-Me)][Cit][Pen][AEF][2Nal][αMeK]K(Ac)N[dF]-NH2; disulfide 1-6),8.00 to 9.00,300 min,> 1440 min,1380 min,> 1440 min
CC(=O)NCCCC[C@@H]1NC(=O)[C@H](Cc2c[nH]c3c(C)cccc23)NC(=O)[C@H]([C@@H](C)O)NC(=O)[C@H](CC(N)=O)NC(=O)[C@@H](NC(C)=O)C(C)(C)SSC(C)(C)[C@@H](C(=O)N[C@@H](Cc2ccc(OCCN)cc2)C(=O)N[C@@H](Cc2ccc3ccccc3c2)C(=O)N[C@@](C)(CCCCN)C(=O)N[C@@H](CCCCNC(C)=O)C(=O)N[C@@H](CC(N)=O)C(=O)N[C@@H](C(N)=O)C(C)C)NC1=O [compound 251],> 9.00,1320 min,> 1440 min,> 1440 min,> 1440 min
COc1cccc2c(C[C@@H]3NC(=O)[C@H]([C@@H](C)O)NC(=O)[C@H](CC(N)=O)NC(=O)[C@@H](NC(C)=O)C(C)(C)SSC(C)(C)[C@@H](C(=O)N[C@@H](Cc4ccc(OCCN)cc4)C(=O)N[C@@H](Cc4ccc5ccccc5c4)C(=O)N[C@@](C)(CCCCN)C(=O)N[C@@H](CCCCNC(C)=O)C(=O)N[C@@H](CC(N)=O)C(=O)N[C@H](CC(C)C)C(N)=O)NC(=O)[C@H](CCCCNC(C)=O)NC3=O)c[nH]c12 [compound 288],8.00 to 9.00,720 min,> 1440 min,> 1440 min,> 1440 min
CC(=O)NCCCC[C@@H]1NC(=O)[C@H](Cc2c[nH]c3c(C)cccc23)NC(=O)[C@H]([C@@H](C)O)NC(=O)[C@H](CC(N)=O)NC(=O)[C@@H](NC(C)=O)C(C)(C)SSC(C)(C)[C@@H](C(=O)N[C@@H](Cc2ccc(OCCN)cc2)C(=O)N[C@@H](Cc2ccc3ccccc3c2)C(=O)N[C@@](C)(CCCCN)C(=O)N[C@@H](CCCCNC(C)=O)C(=O)N[C@@H](CC(N)=O)C(=O)N[C@H](C(N)=O)C(C)C)NC1=O [compound 250],8.00 to 9.00,1020 min,> 1440 min,720 min,> 1440 min
CC(=O)NCCCC[C@H](NC(=O)[C@](C)(CCCCN)NC(=O)[C@H](Cc1ccc2ccccc2c1)NC(=O)[C@H](Cc1ccc(OCCN)cc1)NC(=O)[C@H]1NC(=O)[C@H](CCCNC(N)=O)NC(=O)[C@H](Cc2cn(C)c3ccccc23)NC(=O)[C@H]([C@@H](C)O)NC(=O)[C@H](CC(N)=O)NC(=O)[C@@H](NC(C)=O)C(C)(C)SSC1(C)C)C(=O)NCCC(=O)NCCC(N)=O [compound 280] (Ac-[Pen]NT[Trp(1-Me)][Cit][Pen][AEF][2Nal][αMeK]K(Ac)[βAla][βAla]-NH2; disulfide 1-6),7.00 to 8.00,480 min,> 1440 min,> 1440 min,> 1440 min
CC(=O)NCCCC[C@H](NC(=O)[C@](C)(CCCCN)NC(=O)[C@H](Cc1ccc2ccccc2c1)NC(=O)[C@H](Cc1ccc(OCCN)cc1)NC(=O)[C@H]1NC(=O)[C@H](CCCNC(N)=O)NC(=O)[C@H](Cc2c[nH]c3c(C)cccc23)NC(=O)[C@H]([C@@H](C)O)NC(=O)[C@H](CC(N)=O)NC(=O)[C@@H](NC(C)=O)C(C)(C)SSC1(C)C)C(=O)N[C@@H](CC(N)=O)C(=O)N[C@@H](C(N)=O)[C@H](C)O [compound 263] (Ac-[Pen]NT[Trp(7-Me)][Cit][Pen][AEF][2Nal][αMeK]K(Ac)N[dT]-NH2; disulfide 1-6),> 9.00,840 min,> 1440 min,540 min,> 1440 min
CC(=O)NCCCC[C@@H]1NC(=O)[C@H](Cc2c[nH]c3c(C)cccc23)NC(=O)[C@H]([C@@H](C)O)NC(=O)[C@H](CC(N)=O)NC(=O)[C@@H](NC(C)=O)C(C)(C)SSC(C)(C)[C@@H](C(=O)N[C@@H](Cc2ccc(OCCN)cc2)C(=O)N[C@@H](Cc2ccc3ccccc3c2)C(=O)N[C@@](C)(CCCCN)C(=O)N[C@@H](CCCCNC(C)=O)C(=O)N[C@@H](CC(N)=O)C(=O)N[C@@H](CCCNC(N)=O)C(N)=O)NC1=O [compound 249],> 9.00,420 min,> 1440 min,300 min,> 1440 min
CC(=O)NCCCC[C@H](NC(=O)C1(NC(=O)[C@H](Cc2ccc3ccccc3c2)NC(=O)[C@H](Cc2ccc(OCCN)cc2)NC(=O)[C@H]2NC(=O)[C@H](CCC(N)=O)NC(=O)[C@H](Cc3c[nH]c4c(C)cccc34)NC(=O)[C@H]([C@@H](C)O)NC(=O)[C@H](CC(N)=O)NC(=O)[C@@H](NC(C)=O)C(C)(C)SSC2(C)C)CCCCC1)C(=O)N[C@@H](CC(N)=O)C(=O)NCCC(N)=O [compound 274],> 9.00,300 min,> 1440 min,240 min,300 min
CC(=O)NCCCC[C@@H]1NC(=O)[C@H](Cc2c[nH]c3c(C)cccc23)NC(=O)[C@H]([C@@H](C)O)NC(=O)[C@H](CC(N)=O)NC(=O)[C@@H](NC(C)=O)C(C)(C)SSC(C)(C)[C@@H](C(=O)N[C@@H](Cc2c[nH]cn2)C(=O)N[C@@H](Cc2ccc3ccccc3c2)C(=O)N[C@@](C)(CCCCN)C(=O)N[C@@H](CCCCNC(C)=O)C(=O)N[C@@H](CC(N)=O)C(=O)N[C@H](CC(C)C)C(N)=O)NC1=O [compound 290] (Ac-[Pen]NT[Trp(7-Me)]K(Ac)[Pen]H[2Nal][αMeK]K(Ac)N[dL]-NH2; disulfide 1-6),8.00 to 9.00,960 min,> 1440 min,> 1440 min,> 1440 min
